From ChEMBL document CHEMBL1201862, “PubChem BioAssay data set” (2004) come the findings set out here.

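Following 48 hours of exposure in 96-well plates, responses at five concentrations were used to interpolate endpoints linearly. Abbreviation: GI50, concentration required for 50% inhibition of growth.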 Active and inactive are the calls of the source. No stated cut-off is given here; in the data, active = GI50 up to about 1.1 µM and inactive = higher.

Some test systems named below: A549; ACHN; HCC 2998; HCT-116; HCT-15; HOP-62; HOP-92; K562; KM12; MOLT-4; NCI-H460; NCI-H522; OVCAR-4; OVCAR-8; RPMI-8226; RXF 393; SK-MEL-28; SK-MEL-2; U-251; A498.
Assay in all cases: NCI-60 cell line screen, 48 h

On to `COc1cccc(C2CC(C)(O)Oc3cc4c(cc32)OCO4)c1` (configuration not stated), for which the GI50 in the test on A549 was 31 µM (inactive); in the test on ACHN, 25.9 µM (inactive); in the test on HCC 2998, 27.5 µM (inactive); with HCT-116 it was 9.44 µM (inactive); in the test with HCT-15, 7.01 µM; in the test with HOP-62, 21.1 µM (inactive). The GI50 with HOP-92 is 26.7 µM (inactive); in the test on K562 it was 19.5 µM (inactive); with KM12, 11.2 µM (inactive); in the test on MOLT-4, 8.97 µM (inactive); in the test with NCI-H460, 16.1 µM (inactive); with NCI-H522, 7.21 µM (inactive). For the same compound, the GI50 is 24.2 µM (inactive) in the test on OVCAR-4; 29.6 µM (inactive) with OVCAR-8; 16.1 µM (inactive) in the test on RPMI-8226; 28 µM (inactive) with RXF 393; 52.6 µM (inactive) in the test with SK-MEL-28; 9.53 µM (inactive) with SK-MEL-2. Further, the GI50 in the test with U-251 was 23.4 µM (inactive).

On to `CNC1C(O)C(OC2C(N)CC(N)C(OC3OC(C(C)O)C(O)C(O)C3N)C2O)OCC1(C)O` (configuration not stated), for which the GI50 is > 100 µM (inactive) in the test on A498; > 100 µM (inactive) with A549; > 100 µM (inactive) in the test on ACHN; > 100 µM (inactive) in the test with HCC 2998; > 100 µM (inactive) in the test with HCT-116; above 100 µM with HCT-15. Moreover, the GI50 in the test on HOP-62, in the test on K562, with KM12, in the test with MOLT-4, with NCI-H460 and with NCI-H522 was > 100 µM (inactive) each time. The GI50 in the test on OVCAR-4, in the test with OVCAR-8, with RPMI-8226, in the test on SK-MEL-28, in the test on SK-MEL-2 and with U-251 was > 100 µM (inactive) throughout.

On to `CCCC1C(=O)C(CC)Cc2c(OC)ccc(OC)c21` (configuration not stated), for which the GI50 with A549 is > 100 µM (inactive); with ACHN it was > 100 µM (inactive); in the test on HCC 2998, > 100 µM (inactive); in the test with HCT-15, above 100 µM; with HOP-62, > 100 µM (inactive); with HOP-92, > 100 µM (inactive). Moreover, the GI50 in the test on K562, in the test with KM12, in the test with MOLT-4, in the test with NCI-H460, with NCI-H522 and in the test on OVCAR-4 was > 100 µM (inactive) throughout. The GI50 with OVCAR-8, in the test with RPMI-8226, with RXF 393, with SK-MEL-28, with SK-MEL-2 and in the test with U-251 was > 100 µM (inactive) throughout.

As to `Sc1nnc(Cc2ccc(Cl)cc2)[nH]1`, the GI50 was 57.4 µM (inactive) in the test with A498; 44.1 µM (inactive) in the test with A549; 45.3 µM (inactive) with ACHN; > 100 µM (inactive) in the test on HCC 2998; 51.4 µM (inactive) in the test with HCT-116; 59.6 µM in the test with HCT-15. Further, the GI50 in the test with HOP-62 is 93.1 µM (inactive); in the test with HOP-92, 16.2 µM (inactive); in the test with K562 it was 48.8 µM (inactive); in the test with KM12, 43.2 µM (inactive); in the test with MOLT-4 it was 50.2 µM (inactive); with NCI-H460, 50.8 µM (inactive). Moreover, the GI50 was 71.9 µM (inactive) in the test on OVCAR-4; 46.6 µM (inactive) with OVCAR-8; > 100 µM (inactive) in the test on SK-MEL-28; > 100 µM (inactive) in the test on SK-MEL-2; 58.1 µM (inactive) in the test with U-251.
